From patent publication US10946024B2, “Method for treating cancer” (Epizyme, Inc., priority 2014, dated 2021)

What was measured:
[1] = test system: H3K27me3 in HS-SY-II xenograft; assay: H3K27me3 in tumor of HS-SY-II xenograft, 7 days twice daily oral dosing (ELISA); assay type: in vivo, mice; details: for H3K27me3 in tumor, Mean 2 (fold change to vehicle) / H3K27me3 in tumor, Mean Diff. vehicle vs. treated: 7 days; for H3K27me3 in tumor, Dunnett's test Significant?: alpha 0.05
Description: HS-SY-II cells were harvested during mid-log phase growth, and resuspended in Hank balanced salt solution with 50% Matrigel (BD Biosciences). Balb/C-nu mice (Charles River Laboratories Japan) received 1×10^7 cells (0.1 mL cell suspension) subcutaneously in the right flank. Mice carrying tumors of approximately 200 mm^3 (31 days after injection) were sorted into treatment groups with similar mean tumor volumes. Compound A or vehicle (0.5% MC+0.1% Tween-80 in water) was administered at the indicated doses on twice a day for 7 days by oral gavage. Each dose was delivered in a volume of 0.2 mL/20 g mouse (10 mL/kg), and adjusted for the last recorded weight of individual animals. Peripheral blood samples were collected at approximately 5 minutes before and 3 hours after the last dose from Compound A-treated mice. After obtaining plasma samples by centrifugation, the analysis for plasma concentrations of Compound A was conducted by the liquid chromatography-tandem mass spectrometry (LC/MS/MS) method. The UPLC system (Acquity, Waters) equipped with a mass spectrometer (Quattro premier, MICROMASS) was used for quantification of Compound A. The concentrations are plotted (n=5) in FIG. 7A. Each bar represents a mean of plasma concentration in each group.
For FIG. 10D, tumors were snap-frozen in liquid nitrogen. Frozen tumor samples were cut into a 20 mg pieces and placed in 500 μL of ice cold nuclear extraction buffer (10 mM Tris-HCl, 10 mM MgCl2, 25 mM KCl, 1% Triton X-100, 8.6% Sucrose, plus 1× Halt Protease inhibitor cocktail (1861281, Thermo Scientific)) and homogenized with a handy micro homogenizer. Nuclei were collected by centrifugation at 600 g for 5 minutes at 4° C. and washed once with ice cold PBS. Supernatant was removed and histones extracted for one hour with […] 0.4 N cold sulfuric acid. Extracts were clarified by centrifugation at 10,000 g for 10 minutes at 4° C. and transferred to a fresh microcentrifuge tube containing 1 mL of ice cold acetone. Histones were precipitated at −20° C. for overnight, pelleted by centrifugation at 10,000 g for 10 minutes and resuspended in 100 μl of water. Histones were quantified using the BCA protein assay (23225, Pierce). The diluted histones were coated on Immulon 4HBX plates (3855, Thermo Scientific) overnight and ELISA was performed. Briefly, after blocking with PBS containing 0.05% Tween 20 and 2% bovine serum albumin (BSA), the plates were incubated with H3K27me3 antibody (#9733, Cell Signaling Technology) or total histone H3 antibody (AB1791, Abcam). The plates were further incubated with horseradish peroxidase conjugated anti-rabbit IgG (#7074, Cell Signaling Technology), followed by incubated with TMB substrate (TMBS-0100-01, BioFx Laboratories). Subsequently, the developed colors in the wells were measured using a plate spectrophotometer (SpectraMax 250, Molecular Devices) at 450 nm (reference wavelength 650 nm). The H3K27me3 levels were adjusted to total histone H3, and expressed as fold changes to vehicle control. The values are plotted (n=6) in FIG. 10D. Each bar represents a mean of the values in each group. […] Histones were extracted and quantified, and the levels of H3K27me3 were analyzed as described above. Trimethylation levels of H3K27 in the tumor are plotted (n=5) in FIG. 7B. Each bar represents a mean±SEM of the trimethylation level in each group.

[2] = test system: CDKN2A expression in HS-SY-II xenograft; assay: Gene expression changes in vivo in HS-SY-II xenograft by RT-PCR; set-up: species or system mice; details: 500 mg/kg oral twice daily for 7 days
Description: Tumor samples were collected at approximately 3 hours after the last dose from mice used in analysis for PK values and PD alterations.

[3] = test system: ATF3, EGR1, CDKN2A expression in HS-SY-II cells; assay: Gene expression changes in vitro by RT-PCR, normalized to GAPDH; assay type: cell-based, human; set-up: key to ATF3 expression change, significance 0 uM vs. / EGR1 expression change, significance 0 uM vs. / CDKN2A expression change, significance 0 uM vs.: *: Asterisks mean significant changes compared to levels of 0 μM-treated groups.; **: Asterisks mean significant changes compared to levels of 0 μM-treated groups.; ***: Asterisks mean significant changes compared to levels of 0 μM-treated groups.; ****: Asterisks mean significant changes compared to levels of 0 μM-treated groups
Description: HS-SY-II and SW982 cells were treated with EZH2 inhibitors (Compound A or EPZ-011989) and collected at the indicated time points. Total RNA isolation and cDNA synthesis were performed using the TaqMan Gene Expression Cells-to-CT kit (4399002, Life technologies) according to the manufacturer's protocol. ATF3, EGR1, CDKN2A and GAPDH expression were analyzed by using the TaqMan Gene Expression Assays (Life technologies, 4331182) and the TaqMan Probes (Hs00231069_m1, Hs00152928_m1, Hs00233365_m1, and Hs99999905_m1, respectively).

Q: With `CCN(c1cc(-c2ccc(CN3CCOCC3)cc2)cc(C(=O)NCc2c(C)cc(C)[nH]c2=O)c1C)C1CCOCC1` [Compound A] as the compound, how does the “H3K27me3 in tumor, Dunnett's test Summary” value ([1]; 125 mg/kg) read?
A: * * *

Q: And the “H3K27me3 in tumor, Mean 2 (fold change to vehicle)” value (shortened to “H3K27me3 … (fold change to vehicle)”) ([1]; 125 mg/kg oral twice daily)?
A: 0.7

Q: What about the “H3K27me3 in tumor, Mean Diff. vehicle vs. treated” value ([1]; 125 mg/kg oral twice daily) of the same compound?
A: 0.3

Q: And the “H3K27me3 in tumor, Dunnett's test Significant?” value ([1]; 125 mg/kg)?
A: Yes

Q: And the “H3K27me3 in tumor, Dunnett's test Summary” value ([1]; 250 mg/kg)?
A: * * *

Q: What about the “H3K27me3 … (fold change to vehicle)” value ([1]; 250 mg/kg oral twice daily) of the same compound?
A: 0.55

Q: What about the “H3K27me3 in tumor, Mean Diff. vehicle vs. treated” value ([1]; 250 mg/kg oral twice daily) of the same compound?
A: 0.45

Q: And the “H3K27me3 in tumor, Dunnett's test Significant?” value ([1]; 250 mg/kg)?
A: Yes

Q: And the “H3K27me3 in tumor, Dunnett's test Summary” value ([1]; 500 mg/kg)?
A: * * *

Q: What about the “H3K27me3 … (fold change to vehicle)” value ([1]; 500 mg/kg oral twice daily) of the same compound?
A: 0.304

Q: What about the “H3K27me3 in tumor, Mean Diff. vehicle vs. treated” value ([1]; 500 mg/kg oral twice daily) of the same compound?
A: 0.696

Q: And the “H3K27me3 in tumor, Dunnett's test Significant?” value ([1]; 500 mg/kg)?
A: Yes

Q: And the “H3K27me3 levels in tumor tissues” value ([1]; oral twice daily for 7 days)?
A: dose dependent decrease

Q: And the “CDKN2A expression in tumor” value [2]?
A: significantly upregulated

Q: What about the “ATF3 and EGR1 expression” value ([3]; HS-SY-II in vitro culture) of the same compound?
A: upregulated

Q: And the CDKN2A expression ([3]; HS-SY-II in vitro culture)?
A: Dose- and time-dependent CDKN2A upregulation

Q: And the “CDKN2A expression change, significance 0 uM vs.” value ([3]; HS-SY-II, 1 uM, day 2)?
A: **

Q: And the “ATF3 expression change, significance 0 uM vs.” value ([3]; HS-SY-II, 1 uM, day 4)?
A: *

Q: And the “CDKN2A expression change, significance 0 uM vs.” value ([3]; HS-SY-II, 1 uM, day 4)?
A: ****

Q: What about the “ATF3 expression change, significance 0 uM vs.” value ([3]; HS-SY-II, 1 uM, day 7) of the same compound?
A: **

Q: What about the “CDKN2A expression change, significance 0 uM vs.” value ([3]; HS-SY-II, 1 uM, day 7) of the same compound?
A: ****

Q: What about the “EGR1 expression change, significance 0 uM vs.” value ([3]; HS-SY-II, 1 uM, day 7) of the same compound?
A: **
